# Assay results: patent US9399032B2, “Methods and compositions for treating degenerative and ischemic disorders” (The General Hospital Corporation, priority 2009, dated 2016)
# Counter-ions that a name gives are not always drawn. Like-named read-outs stand apart in the source and are kept apart here.
# Key:
# [1] = system: isolated mitochondria; assay: Effect of phosphoethanolamine on uncoupled respiration of isolated mitochondria; assay type: biochemical; conditions: ~1 min incubation, 1 μM CCCP
# Procedure: Mitochondria were isolated from C57BL/6 mouse kidneys by differential centrifugation and resuspended in experimental buffer to a final concentration of 0.15 mg/ml. Mootha et al., Am J Physiol 272:H769 (1997). State 2 respiration was initiated with the addition of 2.5 mM glutamate and 2.5 mM malate. State 3 respiration was initiated with the addition of 50 nmoles ADP. […] O2 consumption was monitored with a Fiber Optic Oxygen sensor probe from Ocean Optics, and NADH (endogenous, 370±7 nm excitation, 440±4 nm emission) and membrane potential (1.25 μM TMRM, 546±7 nm excitation, 590±4 nm emission) were measured with a Perkin-Elmer LS50B fluorimeter. A representative trace is shown from 6 independent experiments. 1M stock of phosphoethanolamine (Sigma P0503) was made in sterile water and pH was adjusted to 7.4 by 1N potassium hydroxide solution.
# The upregulation of phosphoethanolamine was confirmed by orthogonal chromatography, as well as via ^31P-NMR. […] Previous studies have shown that phosphoethanolamine can be elevated in tumor cells, and that ethanolamine and PEA can directly silence mitochondrial OXPHOS. Zhu et al., J Lipid Res 49: 2197 (2008); and Modica-Napolitano et al., Biol Psychiatry 55:273 (2004). […]
# [2] = system: Adult rat ventricular cardiomyocytes; assay: Simulated ischemia-reperfusion injury in isolated cardiomyocytes; assay type: cell-based; conditions: 60 minutes ischemia, 30 minutes reperfusion
# Procedure: The ability of meclizine to protect isolated cardiomyocytes and isolated hearts from ischemic injury was investigated as follows Adult rat ventricular cardiomyocytes were isolated by endotoxin-free collagenase perfusion, and the simulated ischemia-reperfusion injury was performed as previously described (Wojtovich and Brookes, Basic Res. Cardiol., 104:121-129 (2009)). Control cells were exposed to DMSO for 20 minutes. Test cells were exposed to either vehicle or doses of meclizine for 20 minutes, which was washed out before being subjected to ischemia for 60 minutes followed by reperfusion for 30 minutes under normoxic conditions in normoxic glucose-replete buffer at pH 7.4. Cell viability was assayed by Trypan blue exclusion. VO2 was assessed by isolating mitochondria and measuring both respirating cells and mitochondria using a Clark oxygen electrode (Wojtovich, supra).
# [3] = system: AMPK; assay: Western blot detection of AMPK phosphorylation; assay type: cell-based; conditions: C2C12 myotubes, 24 hours of treatment
# Procedure: The ability of meclizine, S-meclizine and R-meclizine to activate AMPK in C2C12 myotubes was also evaluated using Western blot detection of AMPK phosphorylation in C2C12 myotubes following 24 hours of treatment with R-meclizine (R-Mec), S-meclizine (S-Mec) and the racemic mixture (Rac-Mec).
# [4] = target: human H 1 receptor (Homo sapiens, UniProt P35367); assay: H1 receptor competitive binding assay with [3H]pyrilamine; conditions: 3 nM [3H]pyrilamine
# Chain of human H 1 receptor (P35367 whole entry): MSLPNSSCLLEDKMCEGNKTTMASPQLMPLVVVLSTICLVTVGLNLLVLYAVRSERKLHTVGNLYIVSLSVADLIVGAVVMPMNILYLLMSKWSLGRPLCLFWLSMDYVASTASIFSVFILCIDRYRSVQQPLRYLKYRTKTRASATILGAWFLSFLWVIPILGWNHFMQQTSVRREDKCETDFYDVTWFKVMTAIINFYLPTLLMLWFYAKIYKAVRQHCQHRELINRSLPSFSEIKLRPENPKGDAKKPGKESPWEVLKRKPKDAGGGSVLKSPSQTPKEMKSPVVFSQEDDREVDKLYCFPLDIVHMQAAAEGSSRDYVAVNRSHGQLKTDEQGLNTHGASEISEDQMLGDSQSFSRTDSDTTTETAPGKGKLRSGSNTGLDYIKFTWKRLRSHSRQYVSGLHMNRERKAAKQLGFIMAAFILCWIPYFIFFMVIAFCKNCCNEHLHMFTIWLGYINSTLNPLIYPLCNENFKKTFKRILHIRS
# Procedure: The ability of each enantiomer to bind to the H1 receptor was evaluated using a competitive binding experiment with the racemate. In vitro binding of R-meclizine (R-Mec) and S-meclizine (S-Mec) to human H 1 receptor was determined by competitive binding assays in the presence of 3 nM [3H]pyrilamine. Non-specific binding was determined in the presence of excess (1 μM) unlabeled Pyrilamine. IC50 were determined by non-linear regression analysis of the competition curves.
# [5] = system: STHdhQ111/111 striatal cells; assay: Viability of mutant huntingtin striatal cells after serum withdrawal (CellTiter-Glo); assay type: cell-based, murine; conditions: serum free media, 24 hours
# Procedure: Wherever indicated, mutant (STHdh^Q111/111) striatal cells were grown in serum free media for ˜24 hours before ATP measurement. Luminescence was measured in DTX880 multimode detector. Multiple concentrations (between 100 μM and 0.5 μM) of rotenone, antimycin, oligomycin, meclizine, hydroxyzine (Spectrum chemical), thiethylperazine (Prestwick), cyproheptadine (Sigma), pyrilamine (Spectrum chemical), tripelennamine (Spectrum chemical), diphenhydramine (Spectrum chemical), clemastine (Prestwick), bromopheniramine (Spectrum chemical), pheniramine (Spectrum chemical), promethazine (MSDiscovery 01500510), atropine (Sigma), and scopolamine (Sigma) were tested for their protective effect on STHdh^Q111/111 cells in serum free media. The dose which conferred maximum protection is shown. Luminescence was measured in DTX880 multimode detector.
# Although it is not necessary to understand the mechanism of an invention, it is believed that the observed cell survival may be due to suppressed apoptosis based on caspase 3 and 7 cleavage. Improved cell viability was confirmed by microscopy.
# [6] = system: C. elegans expressing 128Q huntingtin fragment in touch receptor neurons; conditions: even lower doses; cited from earlier work
# [7] = system: MCH58 fibroblasts; assay: Glucose versus galactose cell growth screen (metabolic state-dependent lethality); conditions: for Sglu/gal (log10 fold change) Score: approximately 10 μM compound, 72 hours, log10 fold change of normalized cell number in glucose versus galactose
# Procedure: (§1) The assay included monitoring or measuring cell growth in cells that are grown in glucose (which allows the cell to utilize glycolysis) or in galactose (which switches the cell energy production from glycolysis to the OXPHOS pathway).
# (§2) The high glucose medium was replaced with 10 mM glucose or 10 mM galactose wherever indicated. All media contained 1 mM pyruvate and 4 mM glutamine.
# (§3) Cell number quantification high throughput assays were performed as follows. […] 24 hours later, cells were washed twice in PBS and media was replaced with either 10 mM glucose or 10 mM galactose containing media.
# (§4) Approximately 100 nL of each compound was pin-transferred in duplicate into the plates with a steel pin array using the CyBi-Well robot (CyBio). […] Compound-treated plates were incubated at 37° C. for 72 hours. […] Wells were then washed once and stored in PBS. Cell culture plates were stored at 4° C. until time of imaging, which was at most 24 hours after fixation.
# (§5) Imaging was performed by Arrayscan VTi automated microscope (ThermoFisher Scientific) with the use of an automated plate stacker. Appropriate filter sets for the detection of the Hoescht fluorescent signal were used. Four non-overlapping images at 5× magnification (NA 0.25) were acquired for a field of view of 1.3 mm×1.3 mm per image. The plate stacker and microscope including an auto-focusing algorithm were controlled entirely with ArrayScan software. Images were captured and stored simultaneously in at least two independent locations. Image analysis was performed using the freely available open-source software package CellProfiler. […] Images were analyzed individually by first identifying nuclei using the Hoescht staining signal.
# (§6) Total number of nuclei per field were recorded, and the four images per well were totaled to give the cell count per well. Computation was performed using a UNIX computer cluster. Appropriate masking of each nucleus was ensured by visually monitoring each batch at its onset and intermittently throughout the run.
# (§7) The fibroblast cells were seeded on Day 0 and incubated for 24 hours in standard culture media.
# (§8) Normalized cell counts were computed separately for each 96-well plate by dividing the cell count of each well with the trimmed mean (the average after discarding the largest and smallest value) of the cell counts for the 16 DMSO treated wells. […] The remaining replicate measurements were averaged, and fold changes were computed as the ratio between the average normalized counts for the glucose and galactose screens. To evaluate statistical significance, Z-scores were computed for each well against the DMSO (null) distribution and averaged Z-scores across replicates. Wells with average Z-score greater than 2.5 were considered significant.
# (§9) By jointly analyzing the glucose and galactose results, a glucose-galactose cell growth ratio can be calculated (Sglu/gal) that represents the log10 fold-change in cell growth in a glucose rich media divided by the log10 fold-change in cell growth in a galactose rich media. […] Low Sglu/gal scores (e.g., ranging between approximately (−) 0.1 to (−) 0.7) may arise from inhibition of glycolysis or from inhibition of proliferation, since cells grown in glucose-rich media divide more rapidly.
# [8] = system: MCH58 fibroblasts; conditions: 72 h, 10 µM
# Procedure: as §1, §2, §3, §4, §5, §6, §7, §8, §9
# [9] = system: purified recombinant PCYT2; assay: PCYT2 enzyme assay in vitro; assay type: biochemical; conditions: 50-1000 μM meclizine or 50-600 μM S-meclizine
# Procedure: FIGS. 16 C-D are line graphs showing that PCYT2 (CTP:phosphoethanolamine cytidylyltransferase 2) is a target of meclizine (16C) and S-meclizine (16D). PCYT2 enzyme assays were carried out in vitro with purified recombinant PCYT2 in the presence of 50-1000 μM meclizine or 50-600 μM of S-meclizine.
# CTP:Phosphoethanolamine Cytidylyltransferase (PCYT2) catalyzes the formation of CDP-ethanolamine, which is often the rate regulatory step in the PE-Kennedy pathway. See, e.g., Fullerton et al., J Biol Chem 18; 284(38):25704-13 (2009). To determine whether meclizine affects PCYT2 activity, PCYT2 (CTP:phosphoethanolamine cytidylyltransferase 2) enzyme assays were carried out in vitro with purified recombinant PCYT2 in the presence of 50-1000 μM meclizine or 50-600 μM of S-meclizine. For additional details see Zhu et al., J Lipid Res 49: 2197 (2008).
# [10] = system: C2C12 myotubes; assay: [3H]-2-deoxyglucose uptake; assay type: cell-based; conditions: 50 micromolar, four hours
# Procedure: Fully differentiated C2C12 myotubes were subjected to a glucose uptake protocol, as follows. Briefly, C2C12 myotube cells were incubated for four hours in serum-free media containing either 0.1% DMSO as a control, 50 micromolar meclizine, 50 micromolar S-meclizine, or 2 mM metformin. Cells were subsequently incubated for thirty minutes in serum and glucose free buffer and then transitioned to buffer containing [3H]-2-deoxyglucose for five minutes. After multiple wash steps, cells were lysed and the lysate was subjected to scintillation counting to quantify uptake. Data were prepared as raw counts per minute, which is proportional to 2-deoxyglucose uptake.
Compound,Sglu/gal (log10 fold change) Score [7],further results
"NCCOP(=O)(O)O [PEA, phosphoethanolamine]",,uncoupler-stimulated respiration in isolated mitochondria [1]: blocks uncoupler-stimulated respiration
CN1[C@@H]2C[C@@H](OC(=O)[C@H](CO)c3ccccc3)C[C@H]1[C@@H]1O[C@@H]12 [scopolamine],,"protection of cardiomyocytes against I/R (cell viability, Trypan blue) [2]: not observed"
Cc1cccc(CN2CCN([C@H](c3ccccc3)c3ccc(Cl)cc3)CC2)c1 [R-meclizine],,AMPK activation (phosphorylation) [3]: activate AMPK; affinity on the H1 receptor [4]: high affinity
C=C(C)[C@H]1Cc2c(ccc3c2O[C@@H]2COc4cc(OC)c(OC)cc4[C@@H]2C3=O)O1 [rotenone],,protection of STHdhQ111/111 cells after serum withdrawal [5]: rescue; toxicity in worms (Varma et al.) [6]: strong developmental delay with severe toxicity
CN(C)CCC(c1ccccc1)c1ccccn1 (stereo not shown) [pheniramine],,"protection of cardiomyocytes against I/R (cell viability, Trypan blue) [2]: not observed"
CN1[C@@H]2CC[C@H]1C[C@@H](OC(=O)C(CO)c1ccccc1)C2 (stereo partly shown) [atropine],,"protection of cardiomyocytes against I/R (cell viability, Trypan blue) [2]: not observed"
COc1ccc(CN(CCN(C)C)c2ccccn2)cc1 [pyrilamine],,"protection of cardiomyocytes against I/R (cell viability, Trypan blue) [2]: not observed"
CC1(C)C(=O)C=C[C@@]2(C)C1=C(O)C(=O)[C@]1(C)[C@@H]2CC[C@@]2(C)[C@H](c3ccoc3)C[C@H]3O[C@]321 [cedrelone],−0.22,
COc1cc(C(=O)O)c2c(c1C)OC(=O)c1c(C)cc(O)c(C=O)c1O2 [Psoromic acid],0.35,
Deguelin(-),0.69,
N=C(N)c1ccc(OCCCCCOc2ccc(C(=N)N)cc2)cc1 [Pentamidine isethionate],0.24,
O=c1[nH]c2ccccc2n1C1CCN(CCCC(c2ccc(F)cc2)c2ccc(F)cc2)CC1 [Pimozide],0.18,
CC[C@@]1(O)C[C@H](O[C@H]2C[C@H](N(C)C)[C@H](O)[C@H](C)O2)c2c(cc3c(c2O)C(=O)c2c(O)ccc(O)c2C3=O)[C@H]1C(=O)OC [pyrromycin],−0.30,
COC(=O)[C@]1(C)CC[C@]2(C)CC[C@]3(C)C4=CC=C5C(=CC(=O)C(O)=C5C)[C@]4(C)CC[C@@]3(C)[C@@H]2C1 [pristimerin],−0.37,
CC(C)N(C(=O)CCl)c1ccccc1 [propachlor],−0.26,
O=C(N/N=C/c1ccc([N+](=O)[O-])o1)c1ccc(O)cc1 [Nifuroxazide],0.34,
CC(C)=CCC[C@]1(C)C=Cc2c(O)c3c(c(CC=C(C)C)c2O1)O[C@]12C(=C[C@@H]4C[C@H]1C(C)(C)O[C@@]2(C/C=C(/C)C(=O)O)C4=O)C3=O [gambogic acid],−0.34,
CN(C)CCC=C1c2ccccc2CCc2ccccc21 [amitriptyline],,inhibitory activity against cell growth in galactose (SAR analysis) ([7]; galactose versus glucose): moderate inhibitory activity
COc1ccc2c(c1)O[C@@H]1COc3cc(OC)c(OC)cc3[C@@H]1C2=O [Mundoserone],,Sglu/gal (log10 fold change) Score [8]: 0.57
"Cc1cccc(CN2CCN([C@@H](c3ccccc3)c3ccc(Cl)cc3)CC2)c1 [S-meclizine, S-Meclizine]",,"AMPK activation (phosphorylation) [3]: activate AMPK; affinity on the H1 receptor [4]: much weaker affinity; PCYT2 binding and inhibition [9]: binD to, and inhibit; protection of STHdhQ111/111 cells after serum withdrawal [5]: is protective; basal glucose uptake [10]: promoted increased basal glucose uptake"
COc1ccc(Cc2nccc3cc(OC)c(OC)cc23)cc1OC [Papaverine hydrochloride],0.30,
CCCCc1ccc2[nH]c(NC(=O)OC)nc2c1 [Parbendazole],−0.24,
C[C@H]1CC[C@]2(NC1)O[C@H]1C[C@H]3[C@@H]4CC[C@H]5C[C@@H](O[C@@H]6O[C@H](CO)[C@H](O[C@@H]7O[C@H](CO)[C@@H](O)[C@H](O[C@@H]8OC[C@@H](O)[C@H](O)[C@H]8O)[C@H]7O[C@@H]7O[C@H](CO)[C@@H](O)[C@H](O)[C@H]7O)[C@H](O)[C@H]6O)CC[C@]5(C)[C@H]4CC[C@]3(C)[C@H]1[C@@H]2C [tomatine],−0.64,
C=C1CC[C@@H]2[C@](C)(CO)[C@H](O)CC[C@@]2(C)[C@@H]1C/C=C1/C(=O)OC[C@H]1O [andrographolide],−0.46,
COc1ccccc1OCCNCC(O)COc1cccc2[nH]c3ccccc3c12 (stereo not shown) [Carvedilol],0.15,
15-norcaryophyllen-3-one,−0.29,
CC(C)=CCCC1(C)C=Cc2c(O)c3c(c(CC=C(C)C)c2O1)OC12C(=CC4CC1C(C)(C)OC2(C/C=C(/C)C(=O)O)C4O)C3=O (stereo not shown) [dihydrogambogic acid],−0.32,
picropodophyllotoxin acetate,−0.24,
